In ChEMBL document CHEMBL5233229, “Recent advances in the development of ubiquitin-specific-processing protease 7 (USP7) inhibitors” (Eur J Med Chem, 2020):

biological target: T1, Ubiquitin carboxyl-terminal hydrolase 7 (Homo sapiens, UniProt Q93009); experiment: Inhibition of human USP7 using human N-terminal GST-tagged UBA52 as substrate preincubated for 10 mins followed by substrate addition measured after 45 mins by coomassie brilliant blue staining-based SDS-PAGE analysis; conditions: not given
T1 sequence (Q93009 whole entry): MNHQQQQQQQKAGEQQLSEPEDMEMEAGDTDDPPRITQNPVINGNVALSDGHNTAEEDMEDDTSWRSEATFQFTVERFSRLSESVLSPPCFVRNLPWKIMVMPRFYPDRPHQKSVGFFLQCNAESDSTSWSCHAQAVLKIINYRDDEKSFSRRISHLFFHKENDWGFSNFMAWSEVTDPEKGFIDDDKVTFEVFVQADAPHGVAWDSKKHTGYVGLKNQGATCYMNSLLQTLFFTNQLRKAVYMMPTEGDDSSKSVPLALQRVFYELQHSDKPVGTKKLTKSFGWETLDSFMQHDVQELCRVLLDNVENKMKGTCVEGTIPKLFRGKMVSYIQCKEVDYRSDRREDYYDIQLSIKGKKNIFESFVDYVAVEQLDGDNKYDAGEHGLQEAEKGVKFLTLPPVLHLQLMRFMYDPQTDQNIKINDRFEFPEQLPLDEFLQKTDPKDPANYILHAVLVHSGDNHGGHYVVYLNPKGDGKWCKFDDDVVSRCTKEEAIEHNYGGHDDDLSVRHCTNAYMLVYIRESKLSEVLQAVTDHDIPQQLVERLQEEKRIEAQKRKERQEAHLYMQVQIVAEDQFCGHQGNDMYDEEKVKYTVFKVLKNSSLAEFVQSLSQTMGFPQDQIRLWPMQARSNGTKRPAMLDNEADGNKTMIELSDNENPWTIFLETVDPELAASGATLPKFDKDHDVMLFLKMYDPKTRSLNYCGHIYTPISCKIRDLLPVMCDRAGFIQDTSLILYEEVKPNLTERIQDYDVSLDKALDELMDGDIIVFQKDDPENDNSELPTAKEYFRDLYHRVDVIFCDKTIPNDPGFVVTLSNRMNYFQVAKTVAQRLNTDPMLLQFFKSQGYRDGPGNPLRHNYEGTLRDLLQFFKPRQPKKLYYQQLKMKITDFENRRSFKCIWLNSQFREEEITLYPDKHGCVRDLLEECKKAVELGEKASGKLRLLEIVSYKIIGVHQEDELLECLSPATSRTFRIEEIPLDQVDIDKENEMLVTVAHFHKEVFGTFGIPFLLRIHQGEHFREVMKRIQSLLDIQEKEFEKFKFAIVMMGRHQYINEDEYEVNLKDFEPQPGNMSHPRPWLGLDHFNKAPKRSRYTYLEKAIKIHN

| Compound | IC50 |
| --- | --- |
| CC1(C)[C@H](O)CC[C@]2(C)[C@H]3C(=O)C=C4[C@@H]5C[C@@](C)(C(=O)O)CC[C@]5(C)CC[C@]4(C)[C@@]3(C)CC[C@@H]12 | > 50 µM |
| CC1(C)CC[C@]2(C(=O)O)CC[C@]3(C)C(=CC[C@@H]4[C@@]5(C)CC[C@H](O)[C@@](C)(CO)[C@@H]5CC[C@]43C)[C@@H]2C1 [HEDERAGENIN] | 33.5 µM |
| C=C(C)[C@@H]1CC[C@]2(C)CC[C@]3(C)[C@H](CC[C@@H]4[C@@]5(C)CC[C@H](O)C(C)(C)[C@@H]5CC[C@]43C)[C@H]2C1 | > 50 µM |
| CC1(C)CC[C@]2(C(=O)O)CC[C@]3(C)C(=CC[C@@H]4[C@@]5(C)C[C@H](O)[C@H](O)[C@@](C)(CO)[C@@H]5CC[C@]43C)[C@@H]2C1 | > 50 µM |
| CC1(C)CCC2(C(=O)O)CCC3=C([C@@H](CCl)C[C@@H]4[C@@]5(C)C[C@H](O)[C@H](O)[C@](C)(C(=O)O)[C@@H]5CC[C@]34C)[C@@H]2C1 (single isomer, unassigned) | > 50 µM |
| CC(=O)O[C@H]1CC[C@]2(C)[C@H]3CC=C4[C@@H]5[C@@H](C)[C@H](C)CC[C@]5(C(=O)O)CC[C@@]4(C)[C@]3(C)CC[C@H]2C1(C)C [O-ACETYLURSOLIC ACID] | > 50 µM |
| C[C@H]1[C@H](C)CC[C@]2(C(=O)O)CC[C@]3(C)C(=CC[C@@H]4[C@@]5(C)C[C@@H](O)[C@H](O)[C@@](C)(CO)[C@@H]5CC[C@]43C)[C@H]12 [ASIATIC ACID] | > 50 µM |
| C[C@H]1[C@H](C)CC[C@]2(C(=O)O)CC[C@]3(C)C(=CC[C@@H]4[C@@]5(C)C[C@@H](O)[C@H](O)[C@@](C)(CO)[C@@H]5[C@H](O)C[C@]43C)[C@H]12 [MADECASSIC ACID] | > 50 µM |

biological target: T1, Ubiquitin carboxyl-terminal hydrolase 7; experiment: Inhibition of USP7 (unknown origin) by Ub-PLA2 assay; conditions: not given

| Compound | IC50 |
| --- | --- |
| CC(O)c1cc([N+](=O)[O-])c(Sc2ccc(Cl)cc2Cl)s1 (centres undefined) | 20.1 µM |
| CC(=O)c1cc([N+](=O)[O-])c(Sc2cc(Cl)cc(Cl)c2)s1 | 6.4 µM |
| CCc1cc([N+](=O)[O-])c(Sc2cccc(Cl)c2Cl)s1 | > 50 µM |
| CCCCc1cc([N+](=O)[O-])c(Sc2ccc(Cl)cc2Cl)s1 | 13.9 µM |
| CC(=O)c1cc([N+](=O)[O-])c(Sc2cccc(Cl)c2)s1 | 7 µM |
| CC(=O)c1cc([N+](=O)[O-])c(Sc2ccc(Cl)cc2Cl)s1 | 6.5 µM |
| CC(=O)c1cc([N+](=O)[O-])c(Sc2ccccc2Cl)s1 | 12.9 µM |
| CC(=O)c1cc([N+](=O)[O-])c(Sc2ccc(Cl)cc2)s1 | 11.8 µM |

biological target: T2, Ubiquitin carboxyl-terminal hydrolase 47 (Homo sapiens, UniProt Q96K76); experiment: Inhibition of USP47 (unknown origin); conditions: not given
T2 sequence (Q96K76 whole entry): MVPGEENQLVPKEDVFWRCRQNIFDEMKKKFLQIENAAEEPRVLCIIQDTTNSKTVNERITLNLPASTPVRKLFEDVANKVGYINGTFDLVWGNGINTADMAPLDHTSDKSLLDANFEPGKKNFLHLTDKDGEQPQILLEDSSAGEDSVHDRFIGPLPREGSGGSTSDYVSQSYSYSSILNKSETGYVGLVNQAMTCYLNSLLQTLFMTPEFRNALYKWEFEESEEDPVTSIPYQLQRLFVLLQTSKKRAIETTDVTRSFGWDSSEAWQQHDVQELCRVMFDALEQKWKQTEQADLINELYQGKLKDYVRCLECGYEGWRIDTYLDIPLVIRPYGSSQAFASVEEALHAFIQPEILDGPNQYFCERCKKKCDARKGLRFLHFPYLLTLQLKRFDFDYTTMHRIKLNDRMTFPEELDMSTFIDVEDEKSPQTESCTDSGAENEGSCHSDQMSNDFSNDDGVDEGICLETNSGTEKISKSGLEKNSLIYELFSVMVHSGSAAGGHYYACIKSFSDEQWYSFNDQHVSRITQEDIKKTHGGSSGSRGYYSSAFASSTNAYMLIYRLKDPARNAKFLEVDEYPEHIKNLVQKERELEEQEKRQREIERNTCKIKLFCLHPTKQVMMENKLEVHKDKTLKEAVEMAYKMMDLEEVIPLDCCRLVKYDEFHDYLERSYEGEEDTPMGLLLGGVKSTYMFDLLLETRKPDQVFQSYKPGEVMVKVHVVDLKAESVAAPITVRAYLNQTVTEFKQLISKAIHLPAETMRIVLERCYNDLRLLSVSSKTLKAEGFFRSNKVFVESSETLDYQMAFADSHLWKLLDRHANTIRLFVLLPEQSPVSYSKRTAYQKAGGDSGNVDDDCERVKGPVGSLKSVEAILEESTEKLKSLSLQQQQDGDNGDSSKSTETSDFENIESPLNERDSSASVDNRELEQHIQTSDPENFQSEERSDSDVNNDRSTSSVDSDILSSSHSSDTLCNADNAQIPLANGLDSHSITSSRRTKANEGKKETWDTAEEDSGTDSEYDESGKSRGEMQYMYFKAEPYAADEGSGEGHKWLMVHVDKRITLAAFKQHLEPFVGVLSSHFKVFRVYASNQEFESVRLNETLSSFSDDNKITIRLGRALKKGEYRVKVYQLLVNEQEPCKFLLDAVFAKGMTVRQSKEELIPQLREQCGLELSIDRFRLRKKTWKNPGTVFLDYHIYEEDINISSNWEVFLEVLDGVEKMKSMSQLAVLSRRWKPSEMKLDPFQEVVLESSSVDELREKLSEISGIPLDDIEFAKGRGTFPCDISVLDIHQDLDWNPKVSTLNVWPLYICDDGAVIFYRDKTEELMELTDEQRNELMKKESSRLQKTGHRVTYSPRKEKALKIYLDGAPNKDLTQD

| Compound | IC50 |
| --- | --- |
| N#Cc1nc2c(nc1C#N)-c1ccccc1C2=O | 3.5 µM |
| N#Cc1nc2c(nc1N)-c1ccccc1C2=O | > 100 µM |
| COc1nc2c(nc1C#N)C(=O)c1ccccc1-2 | > 100 µM |
| COCCOc1nc2c(nc1C#N)C(=O)c1ccccc1-2 | > 100 µM |
| N#Cc1nc2c(nc1N1CCC(F)(F)CC1)-c1ccccc1C2=O | > 100 µM |
| N#CNc1nc2c(nc1C#N)C(=O)c1ccccc1-2 | > 100 µM |
| N#Cc1nc2c(nc1C#N)C1(OCCO1)c1ccccc1-2 | > 100 µM |
| N#Cc1nc2c(nc1C#N)-c1ccc(F)cc1C2=O | 4.3 µM |
| N#Cc1nc2c(nc1C#N)-c1ccc(O)cc1C2=O | 66 µM |

biological target: T1, Ubiquitin carboxyl-terminal hydrolase 7; experiment: Inhibition of human USP7 using ubiquitin-Rh110 as substrate incubated for 30 mins by Fluorometric plate reader analysis; conditions: not given

| Compound | IC50 |
| --- | --- |
| C[C@@]12CCCc3coc(c31)C(=O)c1cc3c(cc12)CC1=C2N(CCS1(=O)=O)[C@@H](O)C[C@]23O | > 5 µM |
| C[C@@]12CCCc3coc(c31)C(=O)c1cc3c(cc12)[C@@]1(O)C[C@@H](O)N2CCS(=O)(=O)C(=C21)C3=O | > 5 µM |
| C[C@@]12CCCc3coc(c31)C(=O)c1cc3c4c(cc(OS(=O)(=O)O)c3cc12)[C@@]12CCC[C@@]3(C)c5cc6c(OS(=O)(=O)O)ccc(O)c6cc5C(=O)[C@@](O)(OC1)[C@@]23O4 | > 5 µM |
| C[C@@]12CCCc3coc(c31)C(=O)c1cc3c(cc12)CC1=C2N(CCS1(=O)=O)[C@H](O)C[C@@]23O | > 5 µM |
| C[C@@]12CCCc3coc(c31)Cc1cc3c(cc12)C(=O)C(C1=CC(=O)c2cc4c(cc2C1=O)C(=O)c1occ2c1[C@@]4(C)CCC2)=CC3=O | 0.47 µM |
| C[C@@]12CCCc3c(CCO)oc(c31)C(=O)c1cc3c(cc12)C(=O)C=CC3=O | 1.4 µM |
| C[C@@]12CCCc3coc(c31)C(=O)c1cc3c(cc12)[C@]1(O)C[C@H](O)N2CCS(=O)(=O)C(=C21)C3=O | > 5 µM |
| C[C@@]12CCCc3coc(c31)C(=O)c1cc3c(cc12)C(=O)C=C(c1cc(OS(=O)(=O)O)c2cc4c(cc2c1O)C(=O)c1occ2c1[C@@]4(C)CCC2)C3=O | 1.2 µM |
| C[C@@]12CCCc3coc(c31)C(=O)c1cc3c(cc12)C(=O)C=C(C1=CC(=O)c2cc4c(cc2C1=O)C(=O)c1occ2c1[C@@]4(C)CCC2)C3=O | 0.35 µM |
| C[C@H](C1=CC(=O)c2cc3c(cc2C1=O)C(=O)c1occ2c1[C@@]3(C)CCC2)C1=CC(=O)c2cc3c(cc2C1=O)[C@]1(C)CCCc2coc(c21)C3=O | 0.49 µM |
| C[C@@]12CCC(=O)c3coc(c31)C(=O)c1cc3c(cc12)C(=O)C=CC3=O [HELENAQUINONE] | 1.3 µM |
| C[C@@]12CCCc3coc(c31)C(=O)c1cc3c(cc12)C(=O)C=C([C@]12CCC[C@@]4(C)c5cc6c(OS(=O)(=O)O)ccc(O)c6cc5C(=O)O[C@]14C(=O)OC2)C3=O | 2 µM |

test system: HCT-116; experiment: Anticancer activity against human HCT-116 cells assessed as cell growth inhibition incubated for 6 days by MTT assay; format: functional; conditions: HCT-116, 144 h, time 6 day, read-out: LD50 (the source's name)

| Compound | CC50 |
| --- | --- |
| COC(=O)C[C@@H](C)[C@H]1CC[C@H]2[C@@H]3CC[C@@H]4C[C@H](O)CC[C@]4(C)[C@H]3CC[C@]12C | 20.5 µM |
| C[C@H](CC(=O)NCCS(=O)(=O)O)[C@H]1CC[C@H]2[C@@H]3[C@H](O)C[C@@H]4C[C@H](O)CC[C@]4(C)[C@H]3C[C@H](O)[C@]12C | > 50 µM |
| C[C@H](CC(=O)O)[C@H]1CC[C@H]2[C@@H]3[C@H](O)C[C@@H]4C[C@H](O)CC[C@]4(C)[C@H]3C[C@H](O)[C@]12C | > 50 µM |
| C[C@H](CC(N)=O)[C@H]1CC[C@H]2[C@@H]3CC[C@@H]4C[C@H](O)CC[C@]4(C)[C@H]3CC[C@]12C | 24.5 µM |
| C[C@H](CC(=O)O)[C@H]1CC[C@H]2[C@@H]3CC[C@@H]4CC(=O)CC[C@]4(C)[C@H]3CC[C@]12C | > 50 µM |
| CC(=O)O[C@@H]1CC[C@@]2(C)[C@H](CC[C@@H]3[C@@H]2CC[C@]2(C)[C@@H]([C@H](C)CC(=O)O)CC[C@@H]32)C1 | 23.2 µM |
| C[C@H](CC(=O)N1CCOCC1)[C@H]1CC[C@H]2[C@@H]3CC[C@@H]4C[C@H](O)CC[C@]4(C)[C@H]3CC[C@]12C | 8.2 µM |
| C[C@H](CC(=O)NO)[C@H]1CC[C@H]2[C@@H]3CC[C@@H]4C[C@H](O)CC[C@]4(C)[C@H]3CC[C@]12C | 27.8 µM |
| C[C@H](CC(=O)NCC#N)[C@H]1CC[C@H]2[C@@H]3CC[C@@H]4C[C@H](O)CC[C@]4(C)[C@H]3C[C@H](O)[C@]12C | 28 µM |

biological target: T1, Ubiquitin carboxyl-terminal hydrolase 7; experiment: Inhibition of human USP7 using Ub-AMC as substrate; conditions: not given

| Compound | IC50 |
| --- | --- |
| N#Cc1nc2c(nc1C#N)C1(OCCO1)c1ccccc1-2 | > 100 µM |

test system: not listed separately; experiment: Inhibition of USP2a (unknown origin); set-up: species or system Homo sapiens; conditions: not given

| Compound | IC50 |
| --- | --- |
| COC(=O)C[C@@H](C)[C@H]1CC[C@H]2[C@@H]3CC[C@@H]4C[C@H](O)CC[C@]4(C)[C@H]3CC[C@]12C | > 50 µM |
| C[C@H](CC(N)=O)[C@H]1CC[C@H]2[C@@H]3CC[C@@H]4C[C@H](O)CC[C@]4(C)[C@H]3CC[C@]12C | 27.9 µM |
| C[C@H](CC(=O)O)[C@H]1CC[C@H]2[C@@H]3CC[C@@H]4CC(=O)CC[C@]4(C)[C@H]3CC[C@]12C | 32 µM |
| CC(=O)O[C@@H]1CC[C@@]2(C)[C@H](CC[C@@H]3[C@@H]2CC[C@]2(C)[C@@H]([C@H](C)CC(=O)O)CC[C@@H]32)C1 | 5.8 µM |
| C[C@H](CC(=O)N1CCOCC1)[C@H]1CC[C@H]2[C@@H]3CC[C@@H]4C[C@H](O)CC[C@]4(C)[C@H]3CC[C@]12C | > 100 µM |
| C[C@H](CC(=O)NO)[C@H]1CC[C@H]2[C@@H]3CC[C@@H]4C[C@H](O)CC[C@]4(C)[C@H]3CC[C@]12C | 9.7 µM |
| C[C@H](CC(=O)NCC#N)[C@H]1CC[C@H]2[C@@H]3CC[C@@H]4C[C@H](O)CC[C@]4(C)[C@H]3C[C@H](O)[C@]12C | 7.4 µM |
